Laboratory results: ChEMBL document CHEMBL1151324, “Cytotoxic geranyl stilbenes from Macaranga schweinfurthii” (J Nat Prod, 1998)
Converted amounts (≈) assume the structure as drawn.

How the values were obtained:
RPMI-8226 = test: Cytotoxicity against human RPMI8226 cells; type: functional
SR = test: Cytotoxicity against human SR cells; type: functional
RXF 393 = test: Cytotoxicity against human RXF393 cells; type: functional
SK-MEL-28 = test: Cytotoxicity against human SK-MEL-28 cells; type: functional
M14 = test: Cytotoxicity against human M14 cells; type: functional
Malme-3M = test: Cytotoxicity against human MALME-3M cells; type: functional
A549 [1] = test: Cytotoxicity against human A549 cells after 1 hr compound washout; type: functional, cell-based; conditions: A549, 1 h
HCC 2998 = test: Cytotoxicity against human HCC2998 cells; type: functional
NCI-H23 = test: Cytotoxicity against human NCI-H23 cells; type: functional
MDA-N = test: Cytotoxicity against human MDA-N cells; type: functional
[2] = Cytotoxicity against human Hs 578T cells; type: functional
SW-620 = test: Cytotoxicity against human SW620 cells; type: functional
MCF7 [3] = test: Cytotoxicity against human doxorubicin-resistant MCF7 cells; type: functional
DU-145 = test: Cytotoxicity against human DU145 cells; type: functional
U-251 = test: Cytotoxicity against human U251 cells; type: functional
SF-295 [4] = test: Cytotoxicity against human SF295 cells after 48 hrs; type: functional, cell-based; conditions: SF-295, 48 h
NCI-H226 = test: Cytotoxicity against human NCI-H226 cells; type: functional
TK-10 = test: Cytotoxicity against human TK10 cells; type: functional
NCI-H522 = test: Cytotoxicity against human NCI-H522 cells; type: functional
MDA-MB-231 = test: Cytotoxicity against human MDA-MB-231 cells; type: functional
SF-295 [5] = test: Cytotoxicity against human SF295 cells after 1 hr; type: functional, cell-based; conditions: SF-295, 1 h
HOP-62 = test: Cytotoxicity against human HOP62 cells; type: functional
LOX IMVI = test: Cytotoxicity against human LOXIMVI cells; type: functional
EKVX = test: Cytotoxicity against human EKVX cells; type: functional
MCF7 [6] = test: Cytotoxicity against human MCF7 cells; type: functional
SN12C = test: Cytotoxicity against human SN12C cells; type: functional
SK-MEL-5 = test: Cytotoxicity against human SK-MEL-5 cells; type: functional
OVCAR-8 = test: Cytotoxicity against human OVCAR8 cells; type: functional
OVCAR-5 = test: Cytotoxicity against human OVCAR5 cells; type: functional
CCRF-CEM = test: Cytotoxicity against human CCRF-CEM cells; type: functional
SF-295 [7] = test: Cytotoxicity against human SF295 cells; type: functional
ACHN = test: Cytotoxicity against human ACHN cells; type: functional
MOLT-4 = test: Cytotoxicity against human MOLT4 cells; type: functional
OVCAR-4 = test: Cytotoxicity against human OVCAR4 cells; type: functional
HCT-15 = test: Cytotoxicity against human HCT15 cells; type: functional
[8] = Cytotoxicity against human 786-O cells; type: functional
SF-268 = test: Cytotoxicity against human SF268 cells; type: functional
A549 [9] = test: Cytotoxicity against human A549 cells after 48 hrs; type: functional, cell-based; conditions: A549, 48 h
HT-29 = test: Cytotoxicity against human HT-29 cells; type: functional
SK-MEL-2 = test: Cytotoxicity against human SK-MEL-2 cells; type: functional
A498 = test: Cytotoxicity against human A498 cells; type: functional
KM12 = test: Cytotoxicity against human KM12 cells; type: functional
MDA-MB-435 = test: Cytotoxicity against human MDA-MB-435 cells; type: functional
SF-295 [10] = test: Cytotoxicity against human SF295 cells after 1 hr compound washout; type: functional, cell-based; conditions: SF-295, 1 h
HOP-92 = test: Cytotoxicity against human HOP92 cells; type: functional
UACC-62 = test: Cytotoxicity against human UACC62 cells; type: functional
SNB-75 = test: Cytotoxicity against human SNB75 cells; type: functional
[11] = read-out: pLC50 (the source's name) (converted)

COc1cc(/C=C/c2cc(O)c(C/C=C(\C)CCC=C(C)C)c(O)c2)cc2c1O[C@]1(C)C[C@@H](O)[C@@H](O)C(C)(C)[C@H]1C2 [SCHWEINFURTHIN B]
GI50 (RPMI-8226): 0.0151 µM | LC50 (RPMI-8226): 12 µM | TGI (RPMI-8226; read-out: pTGI (converted)): 0.11 µM | GI50 (SR): 0.257 µM | LC50 (SR): 58.9 µM | TGI (SR; read-out: pTGI (converted)): 12 µM | GI50 (RXF 393): 0.01 µM | LC50 (RXF 393): 7.08 µM | TGI (RXF 393; read-out: pTGI (converted)): 0.269 µM | GI50 (SK-MEL-28): 1.1 µM | LC50 (SK-MEL-28): 52.5 µM | TGI (SK-MEL-28; read-out: pTGI (converted)): 12.9 µM | GI50 (M14): 0.141 µM | LC50 (M14): 4.17 µM | TGI (M14; read-out: pTGI (converted)): 1.2 µM | GI50 (Malme-3M): 8.71 µM | LC50 (Malme-3M): 69.2 µM | TGI (Malme-3M; read-out: pTGI (converted)): 26.9 µM | IC50 (A549 [1]): 80 µg/mL (≈ 142 µM) | GI50 (HCC 2998): 3.63 µM | LC50 (HCC 2998): 34.7 µM | TGI (HCC 2998; read-out: pTGI (converted)): 11 µM | GI50 (NCI-H23): 3.24 µM | LC50 (NCI-H23): 51.3 µM | TGI (NCI-H23; read-out: pTGI (converted)): 19.1 µM | GI50 (MDA-N): 3.39 µM | CC50 (MDA-N; [11]): 28.8 µM | TGI (MDA-N; read-out: pTGI (converted)): 15.1 µM | GI50 [2]: 0.0199 µM | CC50 [2, 11]: > 100 µM | TGI ([2]; read-out: pTGI (converted)): 1.1 µM | GI50 (SW-620): 0.676 µM | LC50 (SW-620): 17 µM | TGI (SW-620; read-out: pTGI (converted)): 3.09 µM | GI50 (MCF7 [3]): 6.92 µM | CC50 (MCF7 [3]; [11]): 75.9 µM | TGI (MCF7 [3]; read-out: pTGI (converted)): 30.2 µM | GI50 (DU-145): 3.39 µM | CC50 (DU-145; [11]): 50.1 µM | TGI (DU-145; read-out: pTGI (converted)): 19.1 µM | GI50 (U-251): 0.2 µM | LC50 (U-251): 49 µM | TGI (U-251; read-out: pTGI (converted)): 24 µM | IC50 (SF-295 [4]): 0.009 µg/mL (≈ 0.016 µM) | GI50 (NCI-H226): 2.19 µM | LC50 (NCI-H226): 77.6 µM | TGI (NCI-H226; read-out: pTGI (converted)): 14.1 µM | GI50 (TK-10): 6.17 µM | LC50 (TK-10): 52.5 µM | TGI (TK-10; read-out: pTGI (converted)): 21.9 µM | GI50 (NCI-H522): 3.02 µM | LC50 (NCI-H522): 39.8 µM | TGI (NCI-H522; read-out: pTGI (converted)): 17 µM | GI50 (MDA-MB-231): 6.46 µM | CC50 (MDA-MB-231; [11]): 81.3 µM | TGI (MDA-MB-231; read-out: pTGI (converted)): 38 µM | IC50 (SF-295 [5]): > 100 µg/mL | GI50 (HOP-62): 0.851 µM | LC50 (HOP-62): 40.7 µM | TGI (HOP-62; read-out: pTGI (converted)): 14.1 µM | GI50 (LOX IMVI): 0.38 µM | LC50 (LOX IMVI): 30.9 µM | TGI (LOX IMVI; read-out: pTGI (converted)): 17 µM | GI50 (EKVX): 0.933 µM | LC50 (EKVX): 38 µM | TGI (EKVX; read-out: pTGI (converted)): 14.1 µM | GI50 (MCF7 [6]): 0.2 µM | CC50 (MCF7 [6]; [11]): 38.9 µM | TGI (MCF7 [6]; read-out: pTGI (converted)): 6.03 µM | GI50 (SN12C): 12 µM | LC50 (SN12C): 67.6 µM | TGI (SN12C; read-out: pTGI (converted)): 28.8 µM | GI50 (SK-MEL-5): 0.209 µM | LC50 (SK-MEL-5): 28.8 µM | TGI (SK-MEL-5; read-out: pTGI (converted)): 8.91 µM | GI50 (OVCAR-8): 11 µM | LC50 (OVCAR-8): 64.6 µM | TGI (OVCAR-8; read-out: pTGI (converted)): 26.9 µM | GI50 (OVCAR-5): 7.08 µM | LC50 (concentration killing 50% of cells) (OVCAR-5): 44.7 µM | TGI (OVCAR-5; read-out: pTGI (converted)): 19.1 µM | GI50 (CCRF-CEM): 0.229 µM | LC50 (CCRF-CEM): > 100 µM | TGI (CCRF-CEM; read-out: pTGI (converted)): 6.31 µM | LC50 (SF-295 [7]): 3.89 µM | GI50 (SF-295 [7]; read-out: pGI50 (converted)): 0.024 µM | TGI (SF-295 [7]; read-out: pTGI (converted)): 0.288 µM | GI50 (ACHN): 4.27 µM | LC50 (ACHN): 43.7 µM | TGI (ACHN; read-out: pTGI (converted)): 20 µM | GI50 (MOLT-4): 0.0479 µM | LC50 (MOLT-4): 11 µM | TGI (MOLT-4; read-out: pTGI (converted)): 5.25 µM | GI50 (OVCAR-4): 12 µM | LC50 (OVCAR-4): 77.6 µM | TGI (OVCAR-4; read-out: pTGI (converted)): 50.1 µM | GI50 (HCT-15): 1.91 µM | LC50 (HCT-15): 33.9 µM | TGI (HCT-15; read-out: pTGI (converted)): 6.92 µM | GI50 ([8]; 786-0): 0.0219 µM | LC50 ([8]; 786-0): 14.1 µM | TGI ([8]; 786-0, read-out: pTGI (converted)): 1.91 µM | GI50 (SF-268): 4.37 µM | LC50 (SF-268): 75.9 µM | TGI (SF-268; read-out: pTGI (converted)): 24 µM | IC50 (A549 [9]): 7.1 µg/mL (≈ 12.6 µM) | GI50 (HT-29): 0.372 µM | LC50 (HT-29): 5.5 µM | TGI (HT-29; read-out: pTGI (converted)): 2.09 µM | GI50 (SK-MEL-2): 1.82 µM | LC50 (SK-MEL-2): 46.8 µM | TGI (SK-MEL-2; read-out: pTGI (converted)): 17 µM | GI50 (A498): 1.7 µM | LC50 (A498): 44.7 µM | TGI (A498; read-out: pTGI (converted)): 17 µM | GI50 (KM12): 1.29 µM | LC50 (KM12): 18.2 µM | TGI (KM12; read-out: pTGI (converted)): 9.33 µM | GI50 (MDA-MB-435): 7.59 µM | CC50 (MDA-MB-435; [11]): 72.4 µM | TGI (MDA-MB-435; read-out: pTGI (converted)): 33.1 µM | IC50 (SF-295 [10]): 2.9 µg/mL (≈ 5.15 µM) | GI50 (HOP-92): 0.933 µM | LC50 (HOP-92): 41.7 µM | TGI (HOP-92; read-out: pTGI (converted)): 12.9 µM | GI50 (UACC-62): 0.331 µM | LC50 (UACC-62): 10 µM | TGI (UACC-62; read-out: pTGI (converted)): 2.29 µM | GI50 (SNB-75): 0.0251 µM | LC50 (SNB-75): 60.3 µM | TGI (SNB-75; read-out: pTGI (converted)): 1.82 µM
